Laboratory results published in patent US10681909B2, “Herbicidal triazoles” (FMC Corporation, priority 2014, dated 2020).

Columns and labels:
[1] = tested on: ragweed; assay: Test A preemergence; format: in vivo, Ambrosia elatior; details: 0 to 100 scale (0 no effect, 100 complete control)
Source text: (§1) Seeds of plant species selected from barnyardgrass (Echinochloa crus-galli), crabgrass, large (large crabgrass, Digitaria sanguinalis), kochia (Kochia scoparia), ragweed (common ragweed, Ambrosia elatior), foxtail, giant (giant foxtail, Setaria faberii), morningglory (Ipomoea spp.), pigweed (Amaranthus retroflexus), velvetleaf (Abutilon theophrasti), ryegrass, Italian (Italian ryegrass, Lolium multiflorum), wheat (Triticum aestivum), and corn (Zea mays) were planted into a blend of loam soil and sand and treated preemergence with a directed soil spray using test chemicals formulated in a non-phytotoxic solvent mixture which included a surfactant.
(§2) At the same time, plants selected from these crop and weed species and also blackgrass (Alopecurus myosuroides), and galium (catchweed bedstraw, Galium aparine), were planted in pots containing the same blend of loam soil and sand and treated with postemergence applications of test chemicals formulated in the same manner. Plants ranged in height from 2 to 10 cm and were in the one- to two-leaf stage for the postemergence treatment. Treated plants and untreated controls were maintained in a greenhouse for approximately 10 d, after which time all treated plants were compared to untreated controls and visually evaluated for injury. Plant response ratings, summarized in Table A, are based on a 0 to 100 scale where 0 is no effect and 100 is complete control. A dash (-) response means no test result.

[2] = tested on: kochia; assay: Test A postemergence; format: in vivo, Kochia scoparia; details: 0 to 100 scale (0 no effect, 100 complete control), approx. 10 d
Source text: as §1, §2

[3] = tested on: nutsedge, yellow; assay: Test C preemergence; format: in vivo, Cyperus esculentus; details: for Plant response rating (scale of 0 to 100 where 0 is no effect and 100 is complete control): Nutsedge, Yellow, preemergence; for Nutsedge, Yellow plant response rating (0 to 100): Preemergence, visual rating after 13 to 15 d
Source text: (§3) Seeds of plant species selected from blackgrass (Alopecurus myosuroides), ryegrass, Italian (Italian ryegrass, Lolium multiflorum), wheat (winter wheat, Triticum aestivum), galium (catchweed bedstraw, Galium aparine), corn (Zea mays), crabgrass, large (large crabgrass, Digitaria sanguinalis), foxtail, giant, (giant foxtail, Setaria faberii), johnsongrass (Sorghum halepense), lambsquarters (Chenopodium album), morningglory (Ipomoea coccinea), nutsedge, yellow (yellow nutsedge, Cyperus esculentus), pigweed (Amaranthus retroflexus), ragweed (common ragweed, Ambrosia elatior), soybean (Glycine max), barnyardgrass (Echinochloa crus-galli), oilseed rape (Brassica napus), waterhemp (common waterhemp, Amaranthus rudis), and velvetleaf (Abutilon theophrasti) were planted into a blend of loam soil and sand and treated preemergence with test chemicals formulated in a non-phytotoxic solvent mixture which included a surfactant. At the same time, plants selected from these crop and weed species and also chickweed (common chickweed, Stellaria media), oat, wild (wild oat, Avena fatua), and kochia (Kochia scoparia), were planted in pots containing Sunshine Redi-Earth® planting medium comprising spaghnum peat moss, vermiculite, starter nutrients and dolomitic limestone and treated with postemergence applications of test chemicals formulated in the same manner. Plants ranged in height from 2 to 18 cm (1- to 4-leaf stage) for postemergence treatments. […] A dash (-) response means no test result.

[4] = tested on: galium; assay: Test C preemergence; format: in vivo, Galium aparine; details: for Plant response rating (scale of 0 to 100 where 0 is no effect and 100 is complete control): Galium, preemergence; for Galium plant response rating (0 to 100): Preemergence, visual rating after 13 to 15 d
Source text: as §3

[5] = tested on: ragweed; assay: Test C preemergence; format: in vivo, Ambrosia elatior; details: for Ragweed plant response rating (0 to 100): Preemergence, visual rating after 13 to 15 d; for Plant response rating (scale of 0 to 100 where 0 is no effect and 100 is complete control): Ragweed, preemergence
Source text: as §3

Structure (SMILES) | Plant response rating, Ragweed ([1]; 31 g ai/ha) | Plant response rating, Ragweed ([1]; 125 g ai/ha) | Plant response rating, Kochia ([2]; 31 g ai/ha) | Plant response rating, Kochia ([2]; 125 g ai/ha) | Plant response rating (scale of 0 to 100 where 0 is no effect and 100 is complete control) ([3]; 125 g ai/ha) | Plant response rating (scale of 0 to 100 where 0 is no effect and 100 is complete control) ([3]; 250 g ai/ha) | Nutsedge, Yellow plant response rating (0 to 100) ([3]; 31 g ai/ha) | Nutsedge, Yellow plant response rating (0 to 100) ([3]; 62 g ai/ha) | Plant response rating (scale of 0 to 100 where 0 is no effect and 100 is complete control) ([4]; 125 g ai/ha) | Plant response rating (scale of 0 to 100 where 0 is no effect and 100 is complete control) ([4]; 250 g ai/ha) | Galium plant response rating (0 to 100) ([4]; 31 g ai/ha) | Galium plant response rating (0 to 100) ([4]; 62 g ai/ha) | Plant response rating, Ragweed ([1]; 500 g ai/ha) | Ragweed plant response rating (0 to 100) ([5]; 31 g ai/ha) | Ragweed plant response rating (0 to 100) ([5]; 62 g ai/ha) | Plant response rating (scale of 0 to 100 where 0 is no effect and 100 is complete control) ([5]; 125 g ai/ha) | Plant response rating (scale of 0 to 100 where 0 is no effect and 100 is complete control) ([5]; 250 g ai/ha) | Plant response rating, Kochia ([2]; 500 g ai/ha)
COc1nc(-c2ccc(C(F)(F)F)cc2)nn1Cc1ccnc(C(F)(F)F)c1 [Compound 25] | 10 | 20 | 90 | 90 |  |  |  |  |  |  |  |  |  |  |  |  |  | 
CCOc1nc(-c2ccc(Cl)cc2)nn1Cc1ccnc(C(F)(F)F)c1 [Compound 26] | 60 | 90 | 80 | 90 |  |  |  |  |  |  |  |  |  |  |  |  |  | 
COc1nc(-c2ccccc2)nn1Cc1ccnc(C(F)(F)F)c1 [Compound 32] |  | 0 |  | 80 | 5 | 20 | 0 | 0 | 60 | 80 | 0 | 0 | 40 | 0 | 5 | 10 | 65 | 90
CCCOc1nc(-c2ccccc2)nn1Cc1ccnc(C(F)(F)F)c1 [Compound 33] |  | 20 |  | 90 |  |  |  |  |  |  |  |  | 30 |  |  |  |  | 90
